The melting point is the temperature, or range, at which the solid turns liquid.

The structures appear in SMILES notation.

In the case of `Cc1ccc(C)c(Oc2nnc(Cl)cc2O)c1Br` [Compound No. 1040, 3-(2-Bromo-3,6-dimethylphenoxy)-6-chloro-4-pyridazinol], the melting point lay within 255 to 257 °C.

The molecule `Cc1cccc(C2CC2)c1Oc1nnc(Cl)cc1OC(=O)c1ccc(C(F)(F)F)cc1` [Compound No. 2988, 6-Chloro-3-(2-cyclopropyl-6-methylphenoxy)-4-pyridazinyl 4-(trifluoromethyl)benzoate] registered a melting point of 127 to 128 °C.

On to `C=C(C)c1cccc(C)c1Oc1nnc(Cl)cc1O` [Compound No. 2577, 6-Chloro-3-(2-isopropenyl-6-methylphenoxy)-4-pyridazinol], for which the melting point was in the range of 183 to 186 °C.

`Oc1cc(Cl)nnc1Oc1c(Cl)cccc1I` [Compound No. 735, 6-Chloro-3-(2-chloro-6-iodophenoxy)-4-pyridazinol] yielded a melting point of 262 to 264 °C.

In turn, `Cc1ccccc1C(=O)Oc1cc(Cl)nnc1Oc1cccc(C(C)(C)C)c1` [Compound No. 1457, 3-(3-tert-Butylphenoxy)-6-chloro-4-pyridazinyl 2-methylbenzoate] displayed a melting point of 63 to 64 °C.

Consider `COc1cccc(Oc2nnc(Cl)cc2O)c1OC` [Compound No. 503, 6-Chloro-3-(2,3-dimethoxyphenoxy)-4-pyridazinol], for which the melting point lay in the range of 199 to 201 °C.

In turn, `COCc1ccccc1Oc1nnc(Cl)cc1O` [Compound No. 324, 6-Chloro-3-[2-(methoxymethyl)phenoxy]-4-pyridazinol] yielded a melting point of 211 to 212 °C.

Take `Cc1cc(OC(=O)c2ccccc2)ccc1Oc1nnc(Cl)cc1OC(=O)c1ccccc1` [Compound No. 3850, 4-{[4-(Benzoyloxy)-6-chloro-3-pyridazinyl]oxy}-3-methylphenyl benzoate]: the melting point is 118 to 120 °C.

Turning to `CC(C)(C)c1ccccc1Oc1nnc(Cl)cc1OS(=O)(=O)c1ccc(Cl)cc1` [Compound No. 2200, 3-(2-tert-Butylphenoxy)-6-chloro-4-pyridazinyl 4-chlorobenzenesulfonate], the melting point fell in the range of 83.5 to 84.5 °C.

In the case of `CCC(=O)Oc1cc(Cl)nnc1Oc1c(C)cccc1C1CC1` [Compound No. 1160, 6-Chloro-3-(2-cyclopropyl-6-methylphenoxy)-4-pyridazinyl propionate], the melting point was 75 to 77 °C.

Regarding `CSc1c(C)cc(C)cc1Oc1nnc(Cl)cc1O` [Compound No. 1027, 6-Chloro-3-[3,5-dimethyl-2-(methylsulfanyl)phenoxy]-4-pyridazinol], the melting point is 213 to 214 °C.

The molecule `Cc1ccc(C(=O)Oc2cc(Cl)nnc2Oc2c(C)cccc2C2CC2)cc1` [Compound No. 1566, 6-Chloro-3-(2-cyclopropyl-6-methylphenoxy)-4-pyridazinyl 4-methylbenzoate] came in with a melting point of 77.5 to 78 °C.

In turn, `Oc1cc(Cl)nnc1Oc1cccc2sccc12` [Compound No. 534, 3-(1-Benzothien-4-yloxy)-6-chloro-4-pyridazinol] had a melting point of 181 to 183 °C.

Consider `Cc1cccc(C2CC2)c1Oc1nnc(Cl)cc1OC(=O)c1cccn1C` [Compound No. 3282, 6-Chloro-3-(2-cyclopropyl-6-methylphenoxy)-4-pyridazinyl 1-methyl-1H-pyrrole-2-carboxylate], for which the melting point was in the range of 143 to 144 °C.

Molecule `Cc1cccc(Br)c1Oc1nnc(Cl)cc1O` [Compound No. 758, 3-(2-Bromo-6-methylphenoxy)-6-chloro-4-pyridazinol] had a melting point of 242 to 243 °C.

`Cc1ccc(Oc2nnc(Cl)cc2O)c(C(C)(C)C)c1` [Compound No. 567, 3-(2-tert-Butyl-4-methylphenoxy)-6-chloro-4-pyridazinol] registered a melting point of 230 to 236 °C.

In turn, `Oc1cc(Cl)nnc1Oc1ccc(Cl)cc1` [Compound No. 427, 6-Chloro-3-(4-chlorophenoxy)-4-pyridazinol] registered a melting point of 226 to 231 °C.

For `CC(C)=Cc1ccccc1Oc1nnc(Cl)cc1O` [Compound No. 2540, 6-Chloro-3-[2-(2-methyl-1-propenyl)phenoxy]-4-pyridazinol], the melting point is 149 to 152 °C.

`CON=C(C)c1ccccc1Oc1nnc(Cl)cc1O` [Compound No. 334, 1-{2-[(6-Chloro-4-hydroxy-3-pyridazinyl)oxy]phenyl}ethanone O-methyloxime] yielded a melting point of 165 to 167 °C.

For `CC(C)c1ccc(C2CC2)c(Oc2nnc(Cl)cc2O)c1` [Compound No. 664, 6-Chloro-3-(2-cyclopropyl-5-isopropylphenoxy)-4-pyridazinol], the melting point fell in the range of 211 to 212 °C.

`CCCCCc1ccccc1Oc1nnc(Cl)cc1O` [Compound No. 137, 6-Chloro-3-(2-pentylphenoxy)-4-pyridazinol] had a melting point of 151.5 to 152.5 °C.

Regarding `Oc1cc(Cl)nnc1Oc1c(F)cccc1C1CC1` [Compound No. 719, 6-Chloro-3-(2-cyclopropyl-6-fluorophenoxy)-4-pyridazinol], the melting point is 200 to 203 °C.

In turn, `Oc1cc(Cl)nnc1Oc1ccccc1C1(F)CC1` [Compound No. 140, 6-Chloro-3-[2-(1-fluorocyclopropyl)phenoxy]-4-pyridazinol] displayed a melting point of 152 to 157 °C.

The molecule `COC(=O)c1ccc(OC)c(Oc2nnc(Cl)cc2O)c1` [Compound No. 2574, Methyl 3-[(6-chloro-4-hydroxy-3-pyridazinyl)oxy]-4-methoxybenzoate] came in with a melting point of 115 to 123 °C.

In the case of `CC(C)c1cccc(C2CC2)c1Oc1nnc(Cl)cc1O` [Compound No. 896, 6-Chloro-3-(2-cyclopropyl-6-isopropylphenoxy)-4-pyridazinol], the melting point is 242 to 245 °C.

`Cc1ccc(Oc2nnc(Cl)cc2O)cc1` [Compound No. 430, 6-Chloro-3-(4-methylphenoxy)-4-pyridazinol] displayed a melting point of 261 to 263 °C.

In the case of `Cc1cccc(C2CC2)c1Oc1nnc(Cl)cc1OC(=O)CC(C)C` [Compound No. 1184, 6-Chloro-3-(2-cyclopropyl-6-methylphenoxy)-4-pyridazinyl 3-methylbutanoate], the melting point lay within 71 to 74 °C.

`Cc1ccccc1C(=O)Oc1cc(Cl)nnc1Oc1ccccc1C1CCCCC1` [Compound No. 1455, 6-Chloro-3-(2-cyclohexylphenoxy)-4-pyridazinyl 2-methylbenzoate] registered a melting point of 89 to 91 °C.

As to `Cc1ccccc1Oc1nncc(Cl)c1O` [Compound No. 45, 5-Chloro-3-(2-methylphenoxy)-4-pyridazinol], the melting point lay within 238 to 243 °C.

`CCC1(c2ccccc2Oc2nnc(Cl)cc2O)CC1` [Compound No. 145, 6-Chloro-3-[2-(1-ethylcyclopropyl)phenoxy]-4-pyridazinol] yielded a melting point of 162 to 165 °C.

`Oc1cc(Cl)nnc1Oc1cccc(Cl)c1F` [Compound No. 438, 6-Chloro-3-(3-chloro-2-fluorophenoxy)-4-pyridazinol] yielded a melting point of 187 to 195 °C.

On to `Cc1ccc(S(=O)(=O)Oc2cc(Cl)nnc2Oc2ccc(C)cc2C)cc1` [Compound No. 2247, 6-Chloro-3-(2,4-dimethylphenoxy)-4-pyridazinyl 4-methylbenzenesulfonate], for which the melting point lay in the range of 80 to 81 °C.

As for `Oc1cc(Cl)nnc1Oc1c(Cl)cccc1Br` [Compound No. 734, 3-(2-Bromo-6-chlorophenoxy)-6-chloro-4-pyridazinol], the melting point is 266 to 274 °C.

The values above are taken from patent US7964531B2, “3-phenoxy-4-pyridazinol derivatives and herbicidal composition containing the same” (Mitsui Chemicals Agro, Inc., priority 2001, dated 2011).
